Reference: patent EP0123546A2, “Compositions for treating inflammation and eliciting analgesia” (Norwich Eaton Pharmaceuticals, Inc., priority 1983, dated 1984)
Where two headings read alike, the source gives them in different places.

Key:
[1] = tested on: ultraviolet light-induced cutaneous erythema; conditions: similar evaluation; Goldenberg et al., op cit.; cited from earlier work
[2] = tested on: phenylquinone-induced writhing; experiment: antagonism of phenylquinone-induced writhing (Hendershot and Forsaith); assay type: in vivo, male albino mice; conditions: for ED50: Mus musculus, read-out: dose giving 50% protection (ED50); for Mean percent protection: one hour before phenylquinone i.p.
Procedure: Groups of 10 fasted male albino mice, 14-28 g. were dosed by gavage with 18-1,000 mg/kg (I) in 0.5% (w/v) methylcellulose or with methylcellulose solution alone. One hour later each mouse received 10 ml/kg of 0.02% phenylquinone in 5% ethanol intraperitoneally. The characteristic writhing responses were observed and counted from 5 to 15 minutes after phenylquinone administration.

[3] = tested on: carrageenin-induced rat paw edema; conditions: same test; Goldenberg et al., Arch. Int. Pharmacodyn. Ther., 243:331-350, 1980; cited from earlier work
[4] = tested on: ultraviolet light-induced cutaneous erythema; experiment: ultraviolet light-induced cutaneous erythema test (Winder et al.); assay type: in vivo, guinea pigs; conditions: Cavia porcellus, po; linear regression of log dose versus percent protection, combined 2, 3 and 4 hour readings
Procedure: Guinea pigs weighing 280-715 g were fasted 24 hours and the dorsal-lateral surface was cleared by clipping and chemical depilation. The animals were placed in an opaque rubber glove with three circular, 6 mm punched holes. Exposure for 90 seconds at a distance of 7 cm to a Model 30620 Hanovia ultraviolet lamp with a Type 616A bulb and Type 6540-001 filter produced the erythema. (I) in methylcellulose was administered orally one hour before irradiation to groups of 5 animals at doses from 5 to 153 mg/kg at a rate of 10 mI/kg. Erythema was scored at 2, 3 and 4 hours post-irradiation as 0 (no redness), 0.5 (slight redness) or 1 (full red circle). Percent protection was calculated with reference to a vehicle-dosed control group of 5 animals treated on the same day. ED50 values were estimated by linear regression analysis of the log dose versus percent protection (combined 2, 3 and 4 hour readings) relationship.

[5] = tested on: carrageenin-induced rat paw edema; experiment: carrageenin-induced rat paw edema method (Winter et al.); assay type: in vivo, male Wistar rats; conditions: for protection: 300 mg/kg p.o.
Excerpt: The compound 5-(4-chlorophenyl)-2-furancarboxylic acid (I) [drawing 1] and its preparation have been described in the chemical literature (Mathur et al. , J. Chem. Soc., 1961 (Part 2), 2576-2578). It has now been discovered that this compound exerts impressive anti-inflammatory activity using the well recognized carrageenin- induced rat paw edema method described by Winter et al. in Proc. Soc. […] Positive results secured under this method are correlative to successful performance in other species where the need for anti-inflammatory medication is present.
In accordance with the aforementioned -method, fasted male Wistar rats, 100-125 g., were dosed in groups of 3 with […] p.o. of (1) in 0.5% (wlv) methylcellulose. A control group of 20 rats (groups of 5 rats each combined from 4 separate experiments) received methylcellulose only at the same dose rate of 10 ml/kg. One hour later 0.05 ml of 1% (w/v) carrageenin was injected into the plantar region of the right hindpaw of each rat, using a 27-gauge 1/2-inch needle. Before oral dosing and at 4 and 6 hours post-carrageenin, hindpaw volumes were determined by immersing the feet in a liquid mercury bath to the level of the anatomical hairline. Displacement of the mercury was determined as a pressure difference, measured through a Statham venous pressure transducer coupled to a Grass Model 7 polygraph. The polygraph was calibrated such that a 1 ml displacement produced a 1 mm pen deflection. Two consecutive measurements were taken in all cases and the mean value used in calculations. Calculation of the ED50 value was done as described below for the mouse writhing data. Mean percent protection increased at 4 hours from 0 to 3 mg/kg p.o. to 51.5 at 100 mg/kg p.o. and at 6 hours from 16.6 at 3 mg/kg to 39.9 at 100 mg/kg in a dose-dependent manner. The high dose of 300 mg/kg p.o. gave 34.9 and 23.2% protection at 4 and 6 hours, respectively.

SMILES	ED50 estimate [1] [mg/kg p.o.]	ED50 ([2]; po) [mg/kg]	ED50 value [3] [mg/kg p.o.]	ED50 [4] [mg/kg]	Mean percent protection ([5]; 3 mg/kg p.o., 4 hours post-carrageenin) [%]	Mean percent protection ([5]; 3 mg/kg p.o., 6 hours post-carrageenin) [%]	Mean percent protection ([5]; 100 mg/kg p.o., 4 hours post-carrageenin) [%]	Mean percent protection ([5]; 100 mg/kg p.o., 6 hours post-carrageenin) [%]	protection ([5]; 4 hours post-carrageenin) [%]	protection ([5]; 6 hours post-carrageenin) [%]	ED50 ([5]; Rattus norvegicus, 4 hours post-carrageenin, oral dose 1 hour before carrageenin) [mg/kg]	Mean percent protection ([2]; 18 mg/kg by gavage) [%]	Mean percent protection ([2]; 1,000 mg/kg by gavage) [%]	ED50 ([2]; linear regression of log oral dose versus percent protection) [mg/kg]
CC(=O)Oc1ccccc1C(=O)O [aspirin]	49.5	182	155	–	–	–	–	–	–	–	–	–	–	–
O=C(O)c1ccc(-c2ccc(Cl)cc2)o1 [(I), 5-(4-chlorophenyl)-2-furancarboxylic acid]	–	–	–	24	0	16.6	51.5	39.9	34.9	23.2	84.2	13.1	92.4	213
